# Test results published in article PMC8448819, “The Arabidopsis MIK2 receptor elicits immunity by sensing a conserved signature from phytocytokines and microbes” (Nature Communications, 2021).
# Assays:
# Type in all cases: in vivo, Arabidopsis thaliana
# [1] = system: bak1-4 and bak1-5/serk4 mutant seedlings; experiment: Root growth assay, coreceptor mutants
# From the text: The Arabidopsis thaliana accession Columbia-0 (Col-0) was used as wild type (WT). T-DNA insertion mutants of mik2-1 (SALK_061769), mik2-2 (SALK_046987), mik2-like (SALK_112341), and rlk7-3 (SALK_120595) were obtained from the Nottingham Arabidopsis Stock Centre (NASC). The fls2 (SALK_141277), bak1-4, bik1-1/pbl1-1, bak1-5/serk4-1, rbohd mutants, and the transgenic line expressing p35S::GFP have been reported previously[19],[62],[63]. The hae/hsl2 mutant was kindly provided by Dr. Reidunn B. Aalen (University of Oslo, Norway), the pepr1-2/pepr2-2 (pepr1,2) mutant by Dr. Zhi Qi (Inner Mongolia University, China), the scoop12 mutant by Dr. Sébastien Aubourg (INRA, France), a transgenic line expressing p35S::Aequorin by Dr. Marc Knight (Durham University, UK), transgenic line expressing pMYB51::GUS by Dr. Frederick M. Ausubel (Harvard Medical School, USA). […]
# Cold stratified seeds were surface-sterilized with 70% (v/v) ethanol for 5 min and were sown on ½MS plates with or without peptides at indicated concentrations. Ten-day-old seedlings grown on plates vertically in a growth chamber were photographed, and the root lengths of seedlings were measured using Image J (http://rsb.info.nih.gov/ij/).
# [2] = system: WRKY30, WRKY33 and CYP81F2 expression, WT seedlings; experiment: RT-qPCR of defense genes, WT
# [3] = system: gene expression, WT Col-0 seedlings; experiment: RNA-Seq, WT Col-0; details: for gene expression fold change: WT, 1 μM PIP1 vs Ctrl, 1 h
# Experimental: Seedlings were then treated with or without 1 μM PIP1 or SCOOP12 for 1 or 6 h and harvested for RNA isolation. Total RNAs (5 μg) from two biological replicates were pooled for cDNA library construction. cDNA library preparation and sequencing were carried out on an Illumina HiSeq 4000 platform with 150-nucleotide pair-end reads in LC-BIO (Hangzhou, China). Total reads were mapped to the Arabidopsis genome (TAIR10; www.arabidopsis.org) with Hisat, and the read counts for every gene were generated with StringTie. The expression levels of genes were calculated by quantifying the cDNA fragments per kilobase of transcript per million fragments mapped (FPKM). Differentially expressed genes (DEGs) between different treatments were defined by fold change of read counts at 1 and 6 h compared to that at 0 h (differential expression analysis using edgeR, fold change ≥ 2 with p-value ≤ 0.01). DEGs were listed in Supplementary Data 2.
Substance,"root growth inhibition in bak1-4 ([1]; bak1-4, 1 µM)","root growth inhibition in bak1-5/serk4 ([1]; bak1-5/serk4, 1 µM)","WRKY30, WRKY33 and CYP81F2 expression ([2]; 1 µM, 1 h, RT-qPCR)",CYP81F2 expression (Fig. 3i) ([2]; repeat 1),CYP81F2 expression (Fig. 3i) ([2]; repeat 2),CYP81F2 expression (Fig. 3i) ([2]; repeat 3),CYP81F2 expression (Fig. 3i) ([2]; repeat 4),overlap of MIK2 kinase domain-upregulated genes with PIP1-upregulated genes in WT ([3]; 746 out of 1205 genes of PIP1-treated RLK7^ECD-MIK2^TK/rlk7) [%],expression of SCOOP genes ([3]; WT seedlings),gene expression fold change ([3]; gene AT1G56242),gene expression fold change ([3]; gene AT1G69920),gene expression fold change ([3]; gene AT3G60120)
"PNGDIFTGPSGSGHGGGR [SCOOP10B, synthesized SCOOP peptide corresponding to the SxS motif]",partially compromised in bak1-4,compromised in bak1-4 and bak1-5/serk4,upregulation,82.36,146.22,132.08,187.19,,,,,
"RLASGP(OH)SPRGRGH [PIP1, secreted peptide, ligand of RLK7]",,,,,,,,61.9,not in WT plants,13807.76,473.83,45141.52
